Key:
[1] = system: human fibroblasts (BJ); experiment: MTT antiproliferative assay, normal BJ fibroblasts; format: cell-based; details: for IC50: Homo sapiens, Fibroblast, 72 h, MTT, mean ± SD of three independent experiments, normal cells
In short: (§1)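 72 h growth inhibition; cpds 10^−7–10^−4 M; DMEM/10% FBS (adherent) or RPMI/10% FBS (suspension), 37 °C/5% CO2; MTT 4 h; formazan in DMSO (adherent) or 10% SDS/0.01 M HCl (suspension); OD 595 nm; GI50 via variable-slope fit.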

[2] = system: HeLa (cervical adenocarcinoma) cells; experiment: MTT antiproliferative assay, HeLa; format: cell-based; details: Homo sapiens, 72 h, mean ± SD of three independent experiments
In short: as §1

[3] = system: MDCK1 (Madin–Darby canine kidney) cells; experiment: MTT antiproliferative assay, non-tumor MDCK1 cells; format: cell-based; details: Canis lupus familiaris, MDCK1, 72 h, mean ± SD of three independent experiments, normal cells
In short: as §1

[4] = system: HuT78 (T-cell lymphoma) cells; experiment: MTT antiproliferative assay, HuT78; format: cell-based, human; details: for IC50: 72 h, MTT, mean ± SD of three independent experiments; for SI (BJ) HuT78: SI = IC50 BJ / IC50 HuT78; for SI (MDCK) HuT78: SI = IC50 MDCK1 / IC50 HuT78
In short: as §1

[5] = system: HL60 (promyelocytic leukemia) cells; experiment: MTT antiproliferative assay, HL60; format: cell-based, human; details: for IC50: Homo sapiens, HL-60, 72 h, MTT, mean ± SD of three independent experiments; for SI (MDCK) HL60: SI = IC50 MDCK1 / IC50 HL60; for SI (BJ) HL60: SI = IC50 BJ / IC50 HL60
Protocol: (§2) The growth inhibition activity was assessed according to the slightly modified procedure performed at the National Cancer Institute, Developmental Therapeutics Program.
(§3) Examined compounds were dissolved in DMSO (1 × 10^−2 M). The experiments were carried out on seven human tumor cell lines and two normal cell lines. The following cell lines were used: HeLa (human cervical adenocarcinoma; purchased from ATCC), CaCo-2 (human colorectal adenocarcinoma), HuT78 (T-cell lymphoma), THP-1 (acute monocytic leukemia), SW620 (colorectal adenocarcinoma, metastatic), MDA-MB-231 (human breast adenocarcinoma), HL60 (promyelocytic leukemia cell line), foreskin fibroblast cells (BJ) and MDCK1 (Madine–Darby canine kidney fibroblast like cells). MDCK1 cells were used between 24 and 26 passages.
(§4) Adherent cells were cultured in the Dulbecco’s modified Eagle medium—DMEM (Gibco, EU) supplemented with 10 % heat-inactivated fetal bovine serum (FBS, Gibco, EU), 2 mM glutamine, and 100 U/0.1 mg penicillin/streptomycin. Cells on suspension were cultured in RPMI 1640 (Gibco, EU) medium supplemented with 10 % FBS (Gibco, EU), 2 mM glutamine, 1 mM sodium pyruvate, 10 mM HEPES. Cells were grown in humidified atmosphere under the conditions of 37 °C/5% of CO2 gas in the CO2 incubator (IGO 150 CELLlife^TM, JOUAN, Thermo Fisher Scientific, Waltham, MA, USA). A erythrosin B (Sigma-Aldrich, St. Louis, MO, USA) dye exclusion method was used to assess cell viability before plating.
(§5) Adherent cells (HeLa, CaCo-2, MCF-7 and MDCK-1) were plated in 96-well flat bottom plates (Greiner, Frickenhausen, Austria) at a concentration of 2 × 10^4 cells/mL. Suspension cells (THP-1 and HuT78) were plated in 96-well microtiter plates (Sarstead, Newton, USA) at a concentration of 1 × 10^5 cells/mL. Twenty-four hours later, cells were treated with test agents in […] 10-fold dilutions ([…] to 10^−4 M) and incubated for further 72 h. Working dilutions were freshly prepared on the day of testing. The solvent was also tested for eventual inhibitory activity by adjusting its concentration to be the same as in working concentrations. After 72 h of incubation, the cell growth rate was evaluated by performing the MTT assay, which detects dehydrogenase activity in viable cells. For this purpose, upon completion of the incubation period, growth medium was discarded and 50 μL of MTT was added to each well at a concentration of 5 mg/mL. After four hours of incubation at 37 °C, water insoluble MTT-formazan crystals were dissolved in 150 μL of dimethyl-sulfoxide (DMSO) for adherent cells, and in 10 % SDS with 0.01 M/L HCl for cells grown in suspension. The absorbance (OD, optical density) was measured on a microplate reader (iMark, BIO RAD, Hercules, CA, USA) at 595 nm.
(§6) Percent of life cells was calculated as follows: % = OD (sample)–OD (background)/OD (control)–OD (background) × 100.
(§7) Optical density (OD) of background for adherent cells is the OD of MTT solution and DMSO; OD (background) for suspension cells is OD of the culture medium with MTT and 10% SDS with 0.01 M/L HCl; OD (control) is the OD of the cells growth without tested compounds.
(§8) Calculation of GI50 value curves and QC analysis is performed by using the Excel tools and GraphPadPrism software (La Jolla, CA), v. 5.03. Briefly, individual concentration effect curves are generated by plotting the logarithm of the concentration of tested compounds(X) vs. corresponding percent inhibition values (Y) using least squares fit. The best fit GI50 values are calculated using Log (inhibitor) versus normalized response—Variable slope equation, where Y Ľ 100/(1 ţ 10 ((LogIC50 _ X) * HillSlope)). QC criteria parameters (Z0, S:B, R2, HillSlope) were checked for every GI50 curve.

[6] = system: MDA-MB-231 (human breast adenocarcinoma) cells; experiment: MTT antiproliferative assay, MDA-MB-231; format: cell-based; details: for IC50: Homo sapiens, MDA-MB-231, 72 h, MTT, mean ± SD of three independent experiments
Protocol: as §2, §3, §4, §5, §6, §7, §8

[7] = system: THP1 (human monocytic leukemia) cells; experiment: MTT antiproliferative assay, THP1; format: cell-based; details: for IC50: Homo sapiens, THP-1, 72 h, MTT, mean ± SD of three independent experiments
Protocol: as §2, §3, §4, §5, §6, §7, §8

[8] = system: SW620 (colorectal adenocarcinoma, metastatic) cells; experiment: MTT antiproliferative assay, SW620; format: cell-based, human; details: Homo sapiens, SW-620; 72 h, MTT, mean ± SD of three independent experiments; read-out: IC50 (µM) SW620
Protocol: as §2, §3, §4, §5, §6, §7, §8

[9] = system: CaCo-2 (colon adenocarcinoma) cells; experiment: MTT antiproliferative assay, CaCo-2; format: cell-based, human; details: for IC50: Homo sapiens, Caco-2, 72 h, MTT, mean ± SD of three independent experiments
In short: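 CaCo-2 cells, plated at 2 × 10^4 cells/mL in DMEM with 10 % FBS at 37 °C/5% CO2, were treated 24 h later with five 10-fold dilutions (10^−7 to 10^−4 M) for 72 h. Viability was measured by MTT (4 h, formazan dissolved in DMSO, OD 595 nm) against background and untreated controls. GI50 came from log-concentration versus percent-inhibition fits.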

O=C(COc1ccc(-c2nc3ccc(C4=NCCCN4)cc3[nH]2)cc1F)c1ccccc1 [42b]
IC50 [1]: 47 ± 3.3 µM
IC50 [2]: > 100 µM
IC50 [3]: 67.3 ± 12.7 µM
IC50 ([4]; Homo sapiens, HuT78, 72 h): 11.9 ± 3.6 µM
SI (BJ) HuT78 [4]: 3.95
SI (MDCK) HuT78 [4]: 5.66
IC50 [5]: 44.4 ± 12.6 µM
SI (MDCK) HL60 [5]: 1.51
IC50 [6]: 84.5 ± 18.3 µM
IC50 [7]: > 100 µM
IC50 [8]: 92.7 ± 34.3 µM
IC50 [9]: > 100 µM

COc1cc(-c2nc3ccc(C4=NCCCN4)cc3[nH]2)ccc1OCc1cn(CCN2CCOCC2)nn1 [46c]
toxicity to normal BJ cells (in words) [1]: not toxic
IC50 [1]: > 100 µM
IC50 [2]: > 100 µM
IC50 [3]: > 100 µM
IC50 [4]: 5.1 ± 4.2 µM
IC50 ([4]; Homo sapiens, HuT78, 72 h): 4.1 µM
SI (MDCK) HuT78 [4]: 19.6
IC50 [5]: 50.7 ± 20.5 µM
SI (BJ) HL60 [5]: 1.97
SI (MDCK) HL60 [5]: 1.97
IC50 [6]: > 100 µM
IC50 [7]: > 100 µM
IC50 [8]: > 100 µM
IC50 [9]: > 100 µM

O=C(COc1ccc(-c2nc3ccc(C4=NCCCN4)cc3[nH]2)cc1)c1ccccc1 [42a]
IC50 [1]: > 100 µM
IC50 [2]: > 100 µM
IC50 [3]: > 100 µM
IC50 ([4]; Homo sapiens, HuT78, 72 h): 7 ± 5.2 µM
SI (BJ) HuT78 [4]: 14.29
SI (MDCK) HuT78 [4]: 14.29
IC50 [5]: 33.2 ± 1.8 µM
SI (BJ) HL60 [5]: 3.01
SI (MDCK) HL60 [5]: 3.01
IC50 [6]: 76.3 ± 11.8 µM
SI (BJ) MDA-MB-231 ([6]; SI = IC50 BJ / IC50 MDA-MB-231): 1.31
SI (MDCK) MDA-MB-231 ([6]; SI = IC50 MDCK1 / IC50 MDA-MB-231): 1.31
IC50 [7]: 44.5 ± 5.3 µM
SI (BJ) THP1 ([7]; SI = IC50 BJ / IC50 THP1): 2.25
SI (MDCK) THP1 ([7]; SI = IC50 MDCK1 / IC50 THP1): 2.25
IC50 [8]: > 100 µM
IC50 [9]: > 100 µM

c1ccc(COc2ccc(-c3nc4ccccc4s3)cc2)nc1 [20a, 2-(4-(Pyridin-2-ylmethoxy)phenyl)benzothiazole]
melting point: 132 to 136 °C
IC50 [1]: > 100 µM
IC50 [2]: > 100 µM
IC50 [3]: 65.7 ± 11.8 µM
IC50 ([4]; Homo sapiens, HuT78, 72 h): > 100 µM
IC50 [9]: > 100 µM

Cl.Fc1cc(-c2nc3ccc(C4=NCCN4)cc3s2)ccc1OCc1c[nH]nn1 [36b, 2-(3-Fluoro-4-((1H-1,2,3-triazol-4-yl)methoxy)phenyl)-6-(4,5-dihydro-1H-imidazol-2-yl)benzothiazole hydrochloride]
melting point: 234 to 237 °C
IC50 [1]: 32.6 ± 3.4 µM
IC50 [2]: 30 ± 1 µM
IC50 [3]: 25.2 ± 1.3 µM
IC50 ([4]; Homo sapiens, HuT78, 72 h): 1.8 ± 0.4 µM
SI (MDCK) HuT78 [4]: 14
IC50 [9]: 38.3 ± 1.2 µM

O=C(COc1ccc(-c2nc3ccc(Cl)cc3s2)cc1)c1ccccc1 [15a, 6-Chloro-2-(4-(2-oxo-2-phenylethoxy)phenyl)benzothiazole]
melting point: 192 to 195 °C
IC50 [1]: > 100 µM
IC50 [2]: > 100 µM
IC50 [3]: > 100 µM
IC50 ([4]; Homo sapiens, HuT78, 72 h): > 100 µM
IC50 [9]: > 100 µM

COc1cc(-c2nc3ccc(Cl)cc3s2)ccc1OCc1cn(Cc2ccccc2)nn1 [24c, 6-Chloro-2-(3-methoxy-4-((1-benzyl-1H-1,2,3-triazol-4-yl)methoxy)phenyl)benzothiazole]
melting point: 190 to 193 °C
IC50 [1]: > 100 µM
IC50 [2]: 82.8 ± 32.3 µM
IC50 [3]: 41.1 ± 17.2 µM
IC50 ([4]; Homo sapiens, HuT78, 72 h): 49.6 ± 38 µM
SI (BJ) HuT78 [4]: 2.0
IC50 [9]: > 100 µM

Fc1cc(-c2nc3ccccc3s2)ccc1OCc1ccccn1 [20b]
melting point: 136 to 142 °C
IC50 [1]: > 100 µM
IC50 [2]: > 100 µM
IC50 [3]: 94.2 ± 18.4 µM
IC50 ([4]; Homo sapiens, HuT78, 72 h): > 100 µM
IC50 [9]: 28.7 ± 16.7 µM
SI (BJ) CaCo-2 ([9]; SI = IC50 BJ / IC50 CaCo-2): 3.48
SI (MDCK) CaCo-2 ([9]; SI = IC50 MDCK1 / IC50 CaCo-2): 3.28

Cl.O=C(COc1ccc(-c2nc3ccc(C4=NCCN4)cc3s2)cc1)c1ccccc1 [34a, 2-(4-(2-Oxo-2-phenylethoxy)phenyl)-6-(4,5-dihydro-1H-imidazol-2-yl)benzothiazole hydrochloride]
melting point: > 250 °C
IC50 [1]: 3.9 ± 0.3 µM
IC50 [2]: 3.4 ± 0.2 µM
IC50 [3]: 2.8 ± 0.3 µM
IC50 ([4]; Homo sapiens, HuT78, 72 h): 2.2 ± 0.3 µM
IC50 [9]: 4 ± 0.2 µM

COc1cc(-c2nc3ccc(Cl)cc3s2)ccc1OCC(=O)c1ccccc1 [15c, 6-Chloro-2-(3-methoxy-4-(2-oxo-2-phenylethoxy)phenyl)benzothiazole]
melting point: 163 to 166 °C
IC50 [1]: > 100 µM
IC50 [2]: > 100 µM
IC50 [3]: 79.3 ± 14.4 µM
IC50 ([4]; Homo sapiens, HuT78, 72 h): > 100 µM
IC50 [9]: > 100 µM

Reference: PMC9785280, “Synthesis, Antiproliferative Evaluation and QSAR Analysis of Novel Halogen- and Amidino-Substituted Benzothiazoles and Benzimidazoles” (International Journal of Molecular Sciences, 2022)
